Reference: patent US20030114498A1, “Remedies for malignant tumor-concomitant neurosis and azoor or analogous diseases thereof” (priority 2002, published 2003)
“Also recorded” adds a separate entry of the source.

What was measured:
apoptosis caused by CAR = assay: Therapeutic effect on cancer-associated neuropathy: ERG in rats given anti-recoverin and anti-hsp70 antibodies into the vitreous body; format: in vivo, Lewis rats; details: nilvadipine 3.2 mg/kg/day peritoneal for two weeks with antibody infusion into vitreous body; follow-up five weeks; 24 h light; FIG. 1
Method: Example of Experiment (Therapeutic Effect on Cancer-Associated Neuropathy)
Test animal: Lewis rats (8 weeks of age) Treatment group 5 animals (10 eyes) Control group 5 animals (10 eyes)
Photoenvironment: Apoptosis (cell death) was induced under light for 24 hours.
Test drugs: Nilvadipine (3.2 mg/kg/day) by peritoneal administration (dissolving solution) polyethylene glycol 400: ethanol:water=1:1:2 Predonine (0.6 μg/kg/day) by intramuscular injection (dissolving solution) PBS (phosphate buffer solution) Cyclosporine A (10 mg/kg/day) by intramuscular injection (dissolving solution) olive oil
Antibodies: anti-recoverin antibody (5 μl/eye) anti-hsp70 antibody (5 μl/eye)
Test drugs were administered for two weeks along with infusion of antibodies into vitreous body of the eye.
Follow-up observation was performed for five weeks after the start of administration. PBS alone was administered to the control group.
In FIG. 1, the vertical axis represents ERG (electroretinogram) amplitude, and the horizontal axis is the lapse of time in weeks. Δ: nilvadipine group; □: predonine group; ⋄: cyclosporin A group; and ◯: control group.

AZOOR [1] = assay: Clinical case: therapeutic effect on AZOOR, static visual field examination (Humphrey visual field analyzer); format: in vivo, human patient; details: person
Description: Example of Clinical Trial (Therapeutic Effect on AZOOR)
The patient became aware of dark and blurred vision in the center of their visual field on Sep. 1, 1999, and visited Ohyachi Kyoritsu Eye Clinic on September 4 in the same year. […] ERG was subnormal and normal for the right and left eyes, respectively. […] FAG detected mild leakage of fluorescein from the optic disc of the right eye. In view of these observations, optic nerve disorder was suspected and the patient was made to visit a brain surgeon in the neighborhood to receive CT and MRT examinations. However, no abnormality was found. […] To treat the eye symptom, the clinic prescribed oral medications such as drug for ameliorating circulation for a while, but no improvement of visual field was observed. Thus, on Oct. 1, 1999, the patient was referred to the Department of ophthalmology at Sapporo Medical University, School of Medicine for close examination.
Visual acuity was Vd=1.2 and Vs=1.2. Although pupils were round and equal in size, the right eye was RAPD(+) but no oculomotor abnormalities were observed. […] In the static visual field examination, reduction of the sensitivity in the central visual field was observed.
Oral administration of prednisolone (40 mg/day) was started on Oct. 1, 1999. The patient became aware of dark and blurred vision also in the center of the visual field of their left eye on Oct. 20, 1999. […]

[2] = launched ten years ago; cited from earlier work
AZOOR [3] = details: reported case, administration for two weeks; cited from earlier work

Structure (SMILES): COC(=O)C1=C(C#N)NC(C)=C(C(=O)OC(C)C)C1c1cccc([N+](=O)[O-])c1 (centres unmarked) [nilvadipine, isopropyl 6-cyano-5-methoxycarbonyl-2-methyl-4-(3-nitrophenyl)-1,4-di hydropyridine-3-carboxylate ester]
- ERG (electroretinogram) amplitude, effectiveness compared with the other test drugs (apoptosis caused by CAR): more effective than predonine and cyclosporin A
- static visual field / visual sensitivity after nilvadipine (AZOOR [1]; two months after start of oral nilvadipine (Depo-Medrol sub-Tenon's injection three days earlier), FIGS. 4 and 5): remarkable improvement of visual sensitivity
- side effects [2]: no noteworthy serious side effects

Structure (SMILES): Nc1nc2c(ncn2COCCO)c(=O)[nH]1 [aciclovir]
- progress of visual field defect in the other eye (AZOOR [3]): stopped

Structure (SMILES): C[C@]12C=CC(=O)C=C1CC[C@@H]1[C@@H]2[C@@H](O)C[C@@]2(C)[C@H]1CC[C@]2(O)C(=O)CO [prednisolone]
- visual field defect under oral prednisolone (AZOOR [1]; oral prednisolone 40 mg/day reduced to 10 mg/day, FIGS. 2 and 3): no amelioration of the visual field defect; also recorded: could not improve the visual field
